Laboratory results: BigSolDB 2.1

Nc1ccc(S(=O)(=O)Nc2ncccn2)cc1
solubility (mole fraction)
Conditions | 278.15 K | 283.15 K | 288.15 K | 293.15 K | 298.15 K | 303.15 K | 308.15 K | 313.15 K
in NMP | 0.0118 | 0.0137 | 0.0153 | 0.018 | 0.0194 | 0.0224 | 0.132 | 0.137
in water | 1.89e-06 | 2.51e-06 | 3.18e-06 | 3.96e-06 | 5.13e-06 | 6.32e-06 | 8.03e-06 | 9.98e-06
